Laboratory results published in ChEMBL document CHEMBL6120984, “Novel potent SOS1 inhibitors containing a tricyclic quinazoline scaffold: A joint view of experiments and simulations” (Eur J Med Chem, 2025).
The source made the active and inactive calls. The calls are words filed in the database; no cut-off is given here.

Assays:
MIA PaCa-2 [1] = experiment: Antiproliferative activity against human MIA PaCa-2 cells expressing KRAS G12C mutant assessed as maximal inhibition of cell proliferation incubated for 14 days in 3-D culture condition relative to control; assay type: functional; conditions: time 14 day
MIA PaCa-2 [2] = experiment: Antiproliferative activity against human MIA PaCa-2 cells expressing KRAS G12C mutant assessed as inhibition of cell proliferation incubated for 14 days in 3-D culture condition; assay type: functional, cell-based; conditions: MIA PaCa-2, 336 h
SOS1-KRAS = SOS1-KRAS (Homo sapiens, UniProt Q07889); experiment: Inhibition of 6His peptide-tagged recombinant human SOS1 (564 to 1049 residues)/N-terminal GST-tagged human recombinant KRAS G12C mutant protein-protein interaction incubated for 1 hrs by HTRF assay; assay type: protein-complex assay
[3] = Inhibition of ERK phosphorylation in human DLD-1 cells expressing KRAS G13D mutant incubated for 60 mins by HTRF assay; assay type: cell-based; conditions: DLD-1, 1 h
[4] = AUC in male CD-1 mouse at 10 mg/kg, po measured after 24 hrs by LC-MS/MS analysis; assay type: ADME, organism-based; conditions: in vivo
MIA PaCa-2 [5] = experiment: Antitumor activity against human MIA PaCa-2 cells xenografted in female BALB/c nude mouse assessed as tumor growth inhibition at 50 mg/kg, po administered twice daily for 21 days relative to control; assay type: functional; conditions: MIA PaCa-2, 504 h, time 21 day, read-out: TGI
[6] = Tmax in male CD-1 mouse at 10 mg/kg, po measured after 24 hrs by LC-MS/MS analysis; assay type: ADME, organism-based; conditions: in vivo
[7] = Cmax in male CD-1 mouse at 10 mg/kg, po measured after 24 hrs by LC-MS/MS analysis; assay type: ADME, organism-based; conditions: in vivo
NCI-H520 = experiment: Antiproliferative activity against human NCI-H520 cells expressing wildtype KRAS assessed as inhibition of cell proliferation; assay type: functional, cell-based
[8] = MRT in male CD-1 mouse at 10 mg/kg, po measured after 24 hrs by LC-MS/MS analysis; assay type: ADME, organism-based; conditions: in vivo
[9] = Elimination rate constant in male CD-1 mouse at 10 mg/kg, po measured after 24 hrs by LC-MS/MS analysis; assay type: ADME, organism-based; conditions: in vivo
DLD-1 = experiment: Antiproliferative activity against human DLD-1 cells expressing KRAS G13D mutant assessed as inhibition of cell proliferation; assay type: functional, cell-based
Mus musculus [10] = experiment: In vivo inhibition of ERK phosphorylation in female BALB/c nude mouse xenografted with human MIA PaCa-2 cells assessed as effect on phosphorylated ERK level in tumor at 50 mg/kg, po administered twice daily for 21 days; assay type: functional, organism-based; conditions: time 21.0 day
[11] = Half-life in male CD-1 mouse at 10 mg/kg, po measured after 24 hrs by LC-MS/MS analysis; assay type: ADME, organism-based; conditions: in vivo
NCI-H441 = experiment: Antiproliferative activity against human NCI-H441 cells expressing KRAS G12V mutant assessed as inhibition of cell proliferation; assay type: functional, cell-based
Mus musculus [12] = experiment: In vivo inhibition of AKT phosphorylation in female BALB/c nude mouse xenografted with human MIA PaCa-2 cells assessed as effect on phosphorylated AKT level in tumor at 50 mg/kg, po administered twice daily for 21 days; assay type: functional, organism-based; conditions: time 21.0 day
NCI-H358 = experiment: Antiproliferative activity against human NCI-H358 cells expressing KRAS G12C mutant assessed as inhibition of cell proliferation; assay type: functional, cell-based
[13] = Therapeutic index, ratio of IC50 for human MCF-10A cells to IC50 for human DLD-1 cells expressing KRAS G13D mutant; assay type: toxicity; conditions: MCF-10A cells versus DLD-1 cells expressing KRAS G13D mutant, read-out: Ratio IC50
[14] = Therapeutic index, ratio of IC50 for human MCF-10A cells to IC50 for human NCI-H358 cells expressing KRAS G12C mutant; assay type: toxicity; conditions: read-out: Ratio IC50
[15] = Cytotoxicity against human MCF-10A cells assessed as inhibition of cell proliferation
[16] = Toxicity in female BALB/c nude mouse xenografted with human MIA PaCa-2 cells assessed as animal death at 50 mg/kg, po administered twice daily for 21 days; assay type: organism-based; conditions: in vivo, 504 h, time 21 day
[17] = Therapeutic index, ratio of IC50 for human MCF-10A cells to IC50 for human MIA PaCa-2 cells expressing KRAS G12C mutant; assay type: toxicity; conditions: read-out: Ratio IC50
[18] = Therapeutic index, ratio of IC50 for human MCF-10A cells to IC50 for human NCI-H441 cells expressing KRAS G12V mutant; assay type: toxicity; conditions: read-out: Ratio IC50
[19] = Toxicity in female BALB/c nude mouse xenografted with human MIA PaCa-2 cells assessed as body weight loss at 50 mg/kg, po administered twice daily for 21 days; assay type: organism-based; conditions: in vivo, 504 h, time 21 day

SOS1-KRAS, sequence (Q07889 whole entry, looked up, stated change not applied, the tested form may be a part): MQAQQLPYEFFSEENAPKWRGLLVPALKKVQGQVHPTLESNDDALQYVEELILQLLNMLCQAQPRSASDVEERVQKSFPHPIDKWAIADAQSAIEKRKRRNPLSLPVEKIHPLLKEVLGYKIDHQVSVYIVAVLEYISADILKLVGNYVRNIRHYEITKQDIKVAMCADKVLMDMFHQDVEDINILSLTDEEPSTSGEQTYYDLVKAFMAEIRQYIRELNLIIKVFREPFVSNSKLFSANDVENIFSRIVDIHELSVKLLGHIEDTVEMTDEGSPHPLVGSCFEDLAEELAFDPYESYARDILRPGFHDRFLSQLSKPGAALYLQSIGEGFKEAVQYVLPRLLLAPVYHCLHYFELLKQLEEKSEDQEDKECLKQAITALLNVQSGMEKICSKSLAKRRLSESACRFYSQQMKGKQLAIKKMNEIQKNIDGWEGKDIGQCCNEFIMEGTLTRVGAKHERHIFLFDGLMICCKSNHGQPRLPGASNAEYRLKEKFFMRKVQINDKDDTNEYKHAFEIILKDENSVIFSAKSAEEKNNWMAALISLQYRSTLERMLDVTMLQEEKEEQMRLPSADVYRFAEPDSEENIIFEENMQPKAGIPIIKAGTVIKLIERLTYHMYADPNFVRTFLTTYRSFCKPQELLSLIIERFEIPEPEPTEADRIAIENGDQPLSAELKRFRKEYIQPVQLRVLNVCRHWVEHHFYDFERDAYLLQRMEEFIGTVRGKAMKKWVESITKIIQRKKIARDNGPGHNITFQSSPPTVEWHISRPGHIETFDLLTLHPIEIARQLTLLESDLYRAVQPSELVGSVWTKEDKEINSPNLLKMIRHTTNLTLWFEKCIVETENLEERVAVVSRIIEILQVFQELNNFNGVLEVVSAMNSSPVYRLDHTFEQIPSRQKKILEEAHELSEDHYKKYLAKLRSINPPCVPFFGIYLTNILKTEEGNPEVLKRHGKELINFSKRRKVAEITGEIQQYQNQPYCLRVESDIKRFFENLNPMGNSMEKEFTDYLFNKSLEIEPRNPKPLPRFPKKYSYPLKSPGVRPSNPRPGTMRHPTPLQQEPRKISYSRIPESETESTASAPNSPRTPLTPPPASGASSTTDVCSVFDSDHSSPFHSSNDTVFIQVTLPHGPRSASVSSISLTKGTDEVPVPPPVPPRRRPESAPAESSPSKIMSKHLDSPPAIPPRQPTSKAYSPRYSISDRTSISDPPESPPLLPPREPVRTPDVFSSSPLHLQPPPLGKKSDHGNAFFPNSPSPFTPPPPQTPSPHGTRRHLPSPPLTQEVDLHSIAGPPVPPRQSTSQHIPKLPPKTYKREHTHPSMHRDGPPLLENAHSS

Row | IC50 (MIA PaCa-2 [2]) | IC50 (SOS1-KRAS) | IC50 [3] | AUC at 24 h [4] | Tmax [6] | Cmax [7] | MRT [8] | k el at 24 h [9] | half-life [11] | Compound | Imax (MIA PaCa-2 [1]) | further results
1 | 0.66 µM | 0.024 µM | 0.097 µM | – | – | – | – | – | – | Cc1nc(N[C@H](C)c2cccc(C(F)F)c2F)c2cc3c(cc2n1)OCCN3C(=O)N1CCN(C)CC1 | 79% | –
2 | > 10 µM | 0.481 µM | > 3 µM | – | – | – | – | – | – | Cc1nc(N[C@H](C)c2cccc(C(F)F)c2F)c2cc3c(cc2n1)OCCN3C(=O)N1CCN(C)C[C@@H]1C | 26% | –
3 | 0.15 µM | – | 0.03 µM | 2.3 µg·h/mL | 0.33 h | 0.87 µg/mL | 2.44 h | 0.000119 s⁻¹ | 1.67 h | COc1cc2nc(C)nc(N[C@H](C)c3cc(N)cc(C(F)(F)F)c3)c2cc1O[C@H]1CCOC1 | 85% | inhibition in vivo at 50 mg/kg (MIA PaCa-2 [5]): 56.3%; IC50 (NCI-H520): 2.63 µM; IC50 (DLD-1): 0.1 µM; inhibition (Mus musculus [10]): Active; IC50 (NCI-H441): 0.16 µM; inhibition (Mus musculus [12]): Active; IC50 (NCI-H358): 0.12 µM
4 | 0.25 µM | – | – | – | – | – | – | – | – | C=C(F)C(=O)N1CCN(c2nc(OC[C@@H]3CCCN3C)nc3c2CCN(c2cccc4cccc(Cl)c24)C3)C[C@@H]1CC#N [ADAGRASIB] | 89% | –
5 | 1.32 µM | 0.019 µM | 0.071 µM | – | – | – | – | – | – | Cc1nc(N[C@H](C)c2cccc(C(F)F)c2F)c2cc3c(cc2n1)OCCN3C(=O)C1CCOCC1 | 76% | –
6 | 0.14 µM | 0.0056 µM | 0.021 µM | 1.92 µg·h/mL | 0.5 h | 0.65 µg/mL | 2.11 h | 0.000111 s⁻¹ | 1.72 h | Cc1nc(N[C@H](C)c2cccc(C(F)F)c2F)c2cc3c(cc2n1)OCCN3C(=O)C1CCN(C)CC1 | 82% | –
7 | 1.53 µM | 0.094 µM | 0.33 µM | – | – | – | – | – | – | Cc1nc(N[C@H](C)c2cccc(C(F)F)c2F)c2cc3c(cc2n1)OCCN3C(=O)C1CN(C)C1 | 67% | –

Row | Compound | IC50 (MIA PaCa-2 [2]) | IC50 (SOS1-KRAS) | IC50 [3] | AUC at 24 h [4] | Tmax [6] | Cmax [7] | MRT [8] | k el at 24 h [9] | half-life [11] | Imax (MIA PaCa-2 [1]) | further results
8 | Cc1nc(N[C@H](C)c2cccc(C(F)F)c2F)c2cc3c(cc2n1)OCCN3C(=O)C1CCN(C(C)C)CC1 | 0.11 µM | 0.0051 µM | 0.018 µM | 2.91 µg·h/mL | 1.08 h | 0.79 µg/mL | 2.83 h | 0.000117 s⁻¹ | 1.65 h | 86% | inhibition in vivo at 50 mg/kg (MIA PaCa-2 [5]): 70.5%; selectivity ratio [13]: > 400; selectivity ratio [14]: > 400; IC50 (NCI-H520): 2.88 µM; IC50 [15]: 44.6 µM; Activity [16]: Non-toxic; IC50 (DLD-1): 0.07 µM; selectivity ratio [17]: > 400; inhibition (Mus musculus [10]): Active; selectivity ratio [18]: > 400; Activity [19]: Non-toxic; IC50 (NCI-H441): 0.12 µM; inhibition (Mus musculus [12]): Active; IC50 (NCI-H358): 0.07 µM
